This is an account of results in patent publication US7273878B2, “Difluoroalkene derivative, pest control agent containing the same, and intermediate therefor” (Kumiai Chemical Industry Co., Ltd., priority 2001, dated 2007).

This assay has as its system Nilaparvata lugenis. The experiment in a line: Insecticidal test for Nilaparvata lugenis. To be noted: 144 h, 500 ppm active ingredient (wettable powder), 4-instar larvae on germinated rice paddy, 25° C., after 6 days, read-out: mortality rate. The class given is in vivo. As to the method: The wettable powder prepared according to the above Preparation Example 2 was diluted with water to a concentration of 500 ppm as a concentration of active ingredient. After soaking the germinated rice paddy in the test solution, the paddy was transferred into a 60 ml volume of plastic cup. Ten (10) heads of 4-instar larvae of Nilaparvata lugenis were inoculated on the paddy and capped, then left at the constant temperature of 25° C. After 6 days from the inoculation, the number of surviving insects was counted, and mortality rate of the insect was calculated according to the following formula 1. mortality rate (%)=[(10−number of surviving insect in the test field)/10]×100 (1)
For the compound `CC(CCOC(=O)c1cccn1CC1CC1)=C(F)F` [Compound 281, 4,4-difluoro-3-methyl-3-butenyl 1-cyclopropylmethyl-1H-pyrrole-2-carboxylate], the mortality – broadly, the share of the test organisms that died – at 500 ppm is at least 90%.

For `CC(CCCCOC(=O)c1cnc(-c2ccccc2)s1)=C(F)F` [Compound 132, 6,6-difluoro-5-methyl-5-hexenyl 2-phenylthiazole-5-carboxylate], the mortality at 500 ppm is at least 90%.

With `CC(CCCCOC(=O)c1cnccn1)=C(F)F` [Compound 28, 6,6-difluoro-5-methyl-5-hexenyl pyrazine-2-carboxylate], the mortality at 500 ppm is at least 90%.

As for `CC(CCCCOC(=O)c1nc(C)n(-c2ccccc2)n1)=C(F)F` [Compound 47, 6,6-difluoro-5-methyl-5-hexenyl 5-methyl-1-phenyl-1H-[1,2,4]triazole-3-carboxylate], the mortality at 500 ppm was at least 90%.

For `CC(CCCCOC(=O)c1cc(Cl)nnc1Cl)=C(F)F` [Compound 48, 6,6-difluoro-5-methyl-5-hexenyl 3,6-dichloropyridazine-4-carboxylate], the mortality at 500 ppm was at least 90%.

For the compound `CC(CCCCOC(=O)c1cnc2ccccc2c1)=C(F)F` [Compound 8, 6,6-difluoro-5-methyl-5-hexenyl quinoline-3-carboxylate], the mortality at 500 ppm is at least 90%.

As for `CCc1nn(C)c(C(=O)OCCCCC(C)=C(F)F)c1Cl` [Compound 26, 6,6-difluoro-5-methyl-5-hexenyl 4-chloro-5-ethyl-2-methyl-2H-pyrazole-3-carboxylate], the mortality at 500 ppm was at least 90%.

With `CCn1c(C(=O)OCCCCC(C)=C(F)F)cc2ccccc21` [Compound 25, 6,6-difluoro-5-methyl-5-hexenyl 1-ethyl-1H-indole-2-carboxylate], the mortality at 500 ppm is at least 90%.

Regarding `CC(CCCCOC(=O)c1ccco1)=C(F)F` [Compound 9, 6,6-difluoro-5-methyl-5-hexenyl furan-2-carboxylate], the mortality at 500 ppm is at least 90%.

With `CC(CCCCOC(=O)c1ccc2ocnc2c1)=C(F)F` [Compound 43, 6,6-difluoro-5-methyl-5-hexenyl benzoxazole-5-carboxylate], the mortality at 500 ppm was at least 90%.

Regarding `CCCCOc1cc(C(=O)OCCC(C)=C(F)F)nc(C)n1` [Compound 276, 4,4-difluoro-3-methyl-3-butenyl 6-butoxy-2-methyl-pyrimidine-4-carboxylate], the mortality at 500 ppm was at least 90%.

As for `CC(CCCCOC(=O)c1noc2ccccc12)=C(F)F` [Compound 44, 6,6-difluoro-5-methyl-5-hexenyl benzo[d]isoxazole-3-carboxylate], the mortality at 500 ppm is at least 90%.

For the compound `CC(CCCCCCOC(=O)c1cc2ccccc2s1)=C(F)F` [Compound 10, 8,8-difluoro-7-methyl-7-octenyl benzo[b]thiophene-2-carboxylate], the mortality at 500 ppm was at least 90%.

On to `CC(CCCCOC(=O)c1cn(C)cn1)=C(F)F` [Compound 39, 6,6-difluoro-5-methyl-5-hexenyl 1-methyl-1H-imidazole-4-carboxylate], for which the mortality at 500 ppm was at least 90%.

Regarding `CCOc1oc(-c2ccccc2)nc1C(=O)OCCCCC(C)=C(F)F` [Compound 50, 6,6-difluoro-5-methyl-5-hexenyl 5-ethoxy-2-phenyl-oxazole-4-carboxylate], the mortality at 500 ppm was at least 90%.

As for `CC(CCCCOC(=O)c1sccc1C)=C(F)F` [Compound 2, 6,6-difluoro-5-methyl-5-hexenyl 3-methylthiophene-2-carboxylate], the mortality at 500 ppm was at least 90%.

For `CC(CCOC(=O)c1nc(C)cc(-c2ccccc2)n1)=C(F)F` [Compound 278, 4,4-difluoro-3-methyl-3-butenyl 4-methyl-6-phenyl-pyrimidine-2-carboxylate], the mortality at 500 ppm was at least 90%.

In the case of `CC(CCCCOC(=O)C1CCOC1)=C(F)F` (stereo not drawn) [Compound 41, 6,6-difluoro-5-methyl-5-hexenyl tetrahydrofuran-3-carboxylate], the mortality at 500 ppm was at least 90%.

As to `CC(CCCCOC(=O)c1snc(Cl)c1Cl)=C(F)F` [Compound 49, 6,6-difluoro-5-methyl-5-hexenyl 3,4-dichloroisothiazole-5-carboxylate], the mortality at 500 ppm is at least 90%.

As for `CC(CCCCOC(=O)c1snnc1-c1ccccc1)=C(F)F` [Compound 11, 6,6-difluoro-5-methyl-5-hexenyl 4-phenyl[1,2,3]-thiadiazole-5-carboxylate], the mortality at 500 ppm was at least 90%.

Take `CC(CCCCOC(=O)c1csc(-c2ccccc2)n1)=C(F)F` [Compound 129, 6,6-difluoro-5-methyl-5-hexenyl 2-phenylthiazole-4-carboxylate]: the mortality at 500 ppm is at least 90%.

Turning to `CC(CCCCOC(=O)c1ccc2[nH]ccc2c1)=C(F)F` [Compound 15, 6,6-difluoro-5-methyl-5-hexenyl 1H-indole-5-carboxylate], the mortality at 500 ppm was at least 90%.

As for `CC(CCCCOC(=O)c1nsc2ccccc12)=C(F)F` [Compound 45, 6,6-difluoro-5-methyl-5-hexenyl benzo[d]isothiazole-3-carboxylate], the mortality at 500 ppm was at least 90%.

As for `CC(CCCCOC(=O)c1nc2ccccc2s1)=C(F)F` [Compound 21, 6,6-difluoro-5-methyl-5-hexenyl benzothiazole-2-carboxylate], the mortality at 500 ppm is at least 90%.

As for `CC(CCCCOC(=O)c1cccn1C)=C(F)F` [Compound 38, 6,6-difluoro-5-methyl-5-hexenyl 1-methyl-1H-pyrrole-2-carboxylate], the mortality at 500 ppm is at least 90%.

Regarding `CC(CCCCOC(=O)c1cnsn1)=C(F)F` [Compound 22, 6,6-difluoro-5-methyl-5-hexenyl [1,2,5]thiadiazole-3-carboxylate], the mortality at 500 ppm was at least 90%.

`CC(CCOC(=O)c1cccn1CC#N)=C(F)F` [Compound 282, 4,4-difluoro-3-methyl-3-butenyl 1-cyanomethyl-1H-pyrrole-2-carboxylate]: the mortality at 500 ppm is at least 90%.

As for `CC(CCOC(=O)c1c2c(nn1C)CCC2)=C(F)F` [Compound 242, 4,4-difluoro-3-methyl-3-butenyl 2-methyl-2,4,5,6-tetrahydrocyclopentapyrazole-3-carboxylate], the mortality at 500 ppm was at least 90%.

For the compound `CC(CCOC(=O)c1ncccc1C(=O)Nc1ccccc1)=C(F)F` [Compound 234, 4,4-difluoro-3-methyl-3-butenyl 3-phenylcarbamoyl-pyridine-2-carboxylate], the mortality at 500 ppm is at least 90%.

In the case of `CC(=O)N1CCC(C(=O)OCCCCC(C)=C(F)F)CC1` [Compound 40, 6,6-difluoro-5-methyl-5-hexenyl 1-acetylpiperidine-4-carboxylate], the mortality at 500 ppm was at least 90%.
